The values that follow come from the OligoGym collection.

Bases are written 5' to 3'; sugars and linkages follow in the same order, as letters with counts (s phosphorothioate, o phosphodiester; PS: all linkages phosphorothioate). The collection does not say whether C is 5-methylated. l = locked nucleic acid (LNA); d = 2'-deoxy (DNA) Some results are limits rather than exact numbers.

For the data set, the target named is Tau. The data set is described as follows: rat primary cortical neurons, FLIPR, 25 uM ASO.
Turning to “ACCAGCTAGTGGTGCCACCT (sugars l3 d14 l3, PS)”, the calcium oscillation score was 20.2 % of control.

As to “TTGTCCAGGGACCCAATCTT (sugars l3 d14 l3, PS)”, the calcium oscillation score is 3.32 % of control.

Regarding GTGACAGAAGAGACGT (sugars l3 d10 l3, PS), the calcium oscillation score is 0 % of control.

As to “TTTAACTCAAATCAATTCT (sugars l4 d11 l4, PS)”, the calcium oscillation score is 72.6 % of control.

With TGGCGACTTGTACACG (sugars l3 d10 l3, PS), the calcium oscillation score was 70.6 % of control.

Consider “ACTTTATTTCCAAATTCACTTTTAC (sugars l3 d18 l4, PS)”, for which the calcium oscillation score is 35.4 % of control.

Regarding AAGGTCAGCTTGTGGG (sugars l3 d10 l3, PS), the calcium oscillation score was 11.4 % of control.

As to “CCATTTTCCATATAATTT (sugars l4 d10 l4, PS)”, the calcium oscillation score was 70.7 % of control.

In the case of CCGTGGTCTGTCTT (sugars l3 d8 l3, PS), the calcium oscillation score is 20.9 % of control.

“CTTTCATCTACTTTTCAG (sugars l3 d12 l3, PS)”: the calcium oscillation score is 70.8 % of control.

For AATTTCACCCTCAGTA (sugars l3 d10 l3, PS), the calcium oscillation score was 73 % of control.

Consider “CTAATTTAGTCACCATC (sugars l3 d10 l4, PS)”, for which the calcium oscillation score was 83.3 % of control.

In the case of “GCTCCAACCACACCTTT (sugars l2 d11 l4, PS)”, the calcium oscillation score was 87.2 % of control.

In the case of “CCACCATACTTGACTTC (sugars l3 d12 l2, PS)”, the calcium oscillation score was 91.6 % of control.

As to TAATCCTACCACCAGA (sugars l2 d10 l4, PS), the calcium oscillation score is 86 % of control.

Turning to TAAAGTCCCAGGTC (sugars l3 d8 l3, PS), the calcium oscillation score was 72.4 % of control.

“TTCACCCCAAGACACAA (sugars l3 d11 l3, PS)”: the calcium oscillation score is 59 % of control.

For the sequence “TTACTTTCTACTCAATTCCA (sugars l3 d15 l2, PS)”, the calcium oscillation score was 60.6 % of control.

Regarding “ACTCAAATCAATTCTCATTT (sugars l4 d12 l4, PS)”, the calcium oscillation score was 70.1 % of control.

On to “CTAATTACATTTTTTCTTTT (sugars l4 d12 l4, PS)”, for which the calcium oscillation score was 60.1 % of control.

Regarding CAGCTATACTATTTCA (sugars l4 d10 l2, PS), the calcium oscillation score was 60.2 % of control.

Take “AATCCTTAATTTAACCACAT (sugars l4 d13 l3, PS)”: the calcium oscillation score is 56.8 % of control.

For the sequence “TTGGAAAGATGAAATTTGCT (sugars l3 d14 l3, PS)”, the calcium oscillation score was 1.45 % of control.

Turning to GCCTCATAAACCTAAT (sugars l3 d9 l4, PS), the calcium oscillation score was 68.2 % of control.

CCATGATCTTAGGCTG (sugars l3 d10 l3, PS): the calcium oscillation score is 17.6 % of control.

In the case of “CCTGGTTTATGATGGATGTT (sugars l3 d14 l3, PS)”, the calcium oscillation score is 0 % of control.

Consider ATTAACCGAACTGCGA (sugars l3 d10 l3, PS), for which the calcium oscillation score is 10.9 % of control.

As for GACGTTGCTAAGATCC (sugars l3 d10 l3, PS), the calcium oscillation score was 22.6 % of control.

Turning to “TTTCTCTCTTAACTTTATTT (sugars l4 d12 l4, PS)”, the calcium oscillation score is 90.4 % of control.

With “ATTTCCAAATTCACTTTTAC (sugars lllddldddddddddldlll, PS)”, the calcium oscillation score was 125 % of control.

As for “CACCTCCTATATTCTCAG (sugars l2 d12 l4, PS)”, the calcium oscillation score was 75.4 % of control.

On to “GGTTTGTAGACTATTTGCAC (sugars l3 d14 l3, PS)”, for which the calcium oscillation score is 0 % of control.

For the sequence GTGTTTGATATTATCC (sugars l3 d10 l3, PS), the calcium oscillation score was 46.7 % of control.

“CAGCCATTTTCCATATA (sugars l3 d12 l2, PS)”: the calcium oscillation score was 47.6 % of control.

“CCCACAGCACTAAATTT (sugars l3 d11 l3, PS)”: the calcium oscillation score was 83.5 % of control.

“CTCAAGAAATGGTTTGCTAC (sugars l3 d14 l3, PS)”: the calcium oscillation score is 23.8 % of control.

With “ACCCCATTTTTGACATA (sugars l3 d12 l2, PS)”, the calcium oscillation score was 73.1 % of control.

As for TCAGTCCTAATCCTGT (sugars l3 d10 l3, PS), the calcium oscillation score was 53.3 % of control.

As for CTTCCAGTCCCGTCTT (sugars l3 d10 l3, PS), the calcium oscillation score was 0 % of control.

Turning to “CGACTTATCTATCCATCT (sugars l2 d12 l4, PS)”, the calcium oscillation score is 45.8 % of control.

For CCATCAATTTCCCTGT (sugars l2 d10 l4, PS), the calcium oscillation score is 56.3 % of control.

On to “GCCATTTTCCATATAAT (sugars l4 d11 l2, PS)”, for which the calcium oscillation score is 37.5 % of control.

In the case of AGTCCCGTCTTTGC (sugars l3 d8 l3, PS), the calcium oscillation score is 2.61 % of control.

On to TACCATGTCGATGCT (sugars l3 d9 l3, PS), for which the calcium oscillation score was 81.6 % of control.

On to TAATCCTGTGCTTC (sugars l3 d8 l3, PS), for which the calcium oscillation score is 2.3 % of control.

Regarding CATCGCTTCCAGTCCC (sugars l3 d10 l3, PS), the calcium oscillation score is 39.1 % of control.

With “TCTTATTGCTTTCCAAT (sugars l3 d10 l4, PS)”, the calcium oscillation score was 101 % of control.

Consider “AATCAATTCTCATTTCAACC (sugars l4 d13 l3, PS)”, for which the calcium oscillation score was 63.9 % of control.

Turning to TAATTAGAAACCTCCT (sugars l4 d8 l4, PS), the calcium oscillation score was 73.3 % of control.

On to TTTACCAATTTGCCTAA (sugars l4 d9 l4, PS), for which the calcium oscillation score was 43.1 % of control.

In the case of “GGTTTATGATGGATGTTGCC (sugars l3 d14 l3, PS)”, the calcium oscillation score was 26.6 % of control.

On to “TATTTCCAAATTCACTTTTA (sugars lldlldddddddddlddlll, PS)”, for which the calcium oscillation score is 76.7 % of control.

For “AACTCAAATCAATTCTCATT (sugars l4 d12 l4, PS)”, the calcium oscillation score was 73.2 % of control.

With “ATCCTGGTGGCGTTGGCCTG (sugars l3 d14 l3, PS)”, the calcium oscillation score was 0 % of control.

“CTTTATTTCCAAATTCACTT (sugars l3 d14 l3, PS)”: the calcium oscillation score was ≥ 200 % of control.

As to “CTGCTCAGCTAAGACCCTCA (sugars l3 d14 l3, PS)”, the calcium oscillation score is 4.03 % of control.

With “TTATTTCCAAATTCACTTTT (sugars llddlldddddddddlldll, PS)”, the calcium oscillation score was 88.8 % of control.

“TGAGCACTAACTCTAAGTAG (sugars l3 d14 l3, PS)”: the calcium oscillation score was 21.4 % of control.

Consider “CAAACCACTCTTATTCTTTA (sugars l4 d13 l3, PS)”, for which the calcium oscillation score is 68.5 % of control.

In the case of “ACCTCTTAGTCATCTTCC (sugars l2 d13 l3, PS)”, the calcium oscillation score was 74.4 % of control.

For the sequence “TCAGCTAAGACCCTCAGGTT (sugars l3 d14 l3, PS)”, the calcium oscillation score is 33 % of control.

For “TAACTCATCAACACCTTTTA (sugars l4 d14 l2, PS)”, the calcium oscillation score was 82.6 % of control.

For the sequence GAGTGCTCTTAGCATC (sugars l3 d10 l3, PS), the calcium oscillation score is 33.3 % of control.

Consider “TTACACCATCCAAGTCAATG (sugars l3 d14 l3, PS)”, for which the calcium oscillation score is 24.2 % of control.

In the case of “TCTCAGTGGAGCCGATCTTG (sugars l3 d14 l3, PS)”, the calcium oscillation score was 0 % of control.

As to AATTTAGTCACCATCAC (sugars l4 d9 l4, PS), the calcium oscillation score is 79.1 % of control.

With AGTCTACCATGTCGAT (sugars l3 d10 l3, PS), the calcium oscillation score was 69.1 % of control.

As for “ATTTCCAAATTCACTTTTAC (sugars l4 d10 l2 d2 l2, PS)”, the calcium oscillation score is 137 % of control.

As for “ATCCAGCCATATTTCAACTC (sugars l3 d14 l3, PS)”, the calcium oscillation score is 28.2 % of control.

With AAGTCCCGAGCCAAA (sugars l3 d9 l3, PS), the calcium oscillation score was 102 % of control.

Regarding “GATACTCAAATTCTTCC (sugars l4 d10 l3, PS)”, the calcium oscillation score was 67.8 % of control.

Regarding GATTTTACTACTCTCTT (sugars l4 d9 l4, PS), the calcium oscillation score is 85.5 % of control.

Regarding “ATTTCCAAATTCACTTTTAC (sugars lldlldddddddddlddlll, PS)”, the calcium oscillation score is 35.4 % of control.

CCCTAAACCATGATCT (sugars l3 d10 l3, PS): the calcium oscillation score was 89.7 % of control.

On to “GCAGACACCTCGTCAGCTAG (sugars l3 d14 l3, PS)”, for which the calcium oscillation score was 59.6 % of control.

Consider AACATCATGTCACACAC (sugars l4 d9 l4, PS), for which the calcium oscillation score is 39 % of control.

Take “CTTTATTTCCAAATTCACTT (sugars l2 d2 l1 d11 l4, PS)”: the calcium oscillation score was 74.5 % of control.

Take “ACTTATCTATCCATCTATT (sugars l3 d12 l4, PS)”: the calcium oscillation score was 55.8 % of control.

In the case of “CACCCAAACTCCAAGTTC (sugars l4 d12 l2, PS)”, the calcium oscillation score was 53.9 % of control.

Turning to CTAATCCTGTGCTTC (sugars l3 d9 l3, PS), the calcium oscillation score was 73.1 % of control.

“AGAACTTCTAGTTATACAGT (sugars l3 d14 l3, PS)”: the calcium oscillation score is 35.7 % of control.

Consider CTCGCGGAAGGTCAGC (sugars l3 d10 l3, PS), for which the calcium oscillation score is 0 % of control.

For the sequence “TGCAATTTCCTTTCCAT (sugars l3 d11 l3, PS)”, the calcium oscillation score was 67.6 % of control.

On to “CCCAGCGTGATCTTCCATCA (sugars l4 d11 l5, PS)”, for which the calcium oscillation score is 104 % of control.

As for “CACTTTCCTAATTCCCAA (sugars l2 d13 l3, PS)”, the calcium oscillation score was 72.7 % of control.

Regarding CAGTCCCGTCTTTGCT (sugars l3 d10 l3, PS), the calcium oscillation score is 0 % of control.

As to “TTTTTTAACTCCCAACTC (sugars l4 d10 l4, PS)”, the calcium oscillation score was 95.2 % of control.

On to TTTGTAGACTATTTG (sugars l3 d9 l3, PS), for which the calcium oscillation score is 0 % of control.

As for CCAATTGTCACATTAA (sugars l4 d8 l4, PS), the calcium oscillation score was 63.1 % of control.

Consider “CCCGGAACTCTCAACTCCTC (sugars l3 d14 l3, PS)”, for which the calcium oscillation score was 18.1 % of control.

Take “CACCTCCTGGTTTATGATGG (sugars l3 d14 l3, PS)”: the calcium oscillation score was 0 % of control.

Turning to “CTCACCCCAAACAAGAA (sugars l2 d11 l4, PS)”, the calcium oscillation score was 45.1 % of control.

Take “TATTATCCTTTGAGCCACAC (sugars l3 d14 l3, PS)”: the calcium oscillation score was 77.4 % of control.

As to “TGCTTACACACCACACAC (sugars l2 d13 l3, PS)”, the calcium oscillation score is 60.7 % of control.

Take CTTGGCTTTGGCGTT (sugars l3 d9 l3, PS): the calcium oscillation score is 82.4 % of control.
